Converted amounts (≈) assume the structure as drawn. Read-outs that look alike come from different tables or passages of the source.
How the values were obtained:
[1] = test system: Bacillus subtilis ATCC 6633; test: antibacterial spectrum by the broth dilution method (MIC); format: cell-based; conditions: ATCC6633; Bacillus subtilis ATCC 6633, broth dilution; read-out: Minimum inhibitory concentration
Procedure: (§1) The antibacterial spectrum of the new guanidino derivatives of kasugamycin was determined by the broth dilution method and shown in Table 2 below.

[2] = test system: Escherichia coli K-12; test: as above; format: cell-based; conditions: K12; Escherichia coli K-12, broth dilution; read-out: Minimum inhibitory concentration
Procedure: as §1

[3] = test system: Escherichia coli NIHJ; test: as above; format: cell-based; conditions: read-out: Minimum inhibitory concentration
Procedure: as §1

[4] = test system: Klebsiella pneumoniae ATCC 10031; test: as above; format: cell-based; conditions: ATCC10031; Klebsiella pneumoniae ATCC 10031, broth dilution; read-out: Minimum inhibitory concentration
Procedure: as §1

[5] = test system: Proteus vulgaris OX 19; test: as above; format: cell-based; conditions: OX19; Proteus vulgaris OX 19, broth dilution; read-out: Minimum inhibitory concentration
Procedure: as §1

[6] = test system: Pseudomonas fluorescence NIHJB-24; test: as above; format: cell-based
Procedure: as §1

[7] = test system: Salmonella paratyphi A; test: as above; format: cell-based; conditions: Salmonella enterica, read-out: Minimum inhibitory concentration
Procedure: as §1

[8] = test system: Shigella sonnei 191-66; test: as above; format: cell-based; conditions: 19166; Shigella sonnei 191-66, broth dilution; read-out: Minimum inhibitory concentration
Procedure: as §1

[9] = test system: Staphylococcus aureus 6538P; test: as above; format: cell-based; conditions: read-out: Minimum inhibitory concentration
Procedure: as §1

[10] = test system: Pseudomonas aeruginosa No. 12; test: protection test against infection in mice of Pseudomonas aeruginosa; format: in vivo, mice (dd strain) infected with Pseudomonas aeruginosa No. 12; conditions: for ED50: Pseudomonas aeruginosa, NO.12, ip, read-out: curative dose (CD50)
Procedure: The inoculum size of Pesudomonas aeruginosa No.12, which was 10 times of LD50 (3.1 × 10^8 cells/ml, 0.25 ml/mouse), was inoculated intraperitoneally to dd strain of mice (19-21 g body weight), and the treatment with the aforesaid kasugamycin-KG-8 was intraperitoneally injected at 0 and 6 hours after the infection.

[11] = test system: mice; test: acute toxicity to mice injected intravenously; format: in vivo; conditions: 350 mg/kg intravenously, five mice
Source text: (§2) The process of Example 3 was repeated using propylenediamine and butylenediamine, respectively in stead of the ethylenediamine. There were obtained 1D-3-O-{2-amino-4-[(2-aminopropyl)-guanidinol]-2,3,4,6-tetradeoxy-α- D-arabino-hexopyranosyl}-chiro-inositol and 1D-3-O-{2-amino-4-[(2-aminobutyl)-guanidinol]-2,3,4,6-tetradeoxy-α-D-arabino-hexopyranosyl]-chiro-inositol in yields of 31.2% and24.6%, respectively.

[12] = test system: Pseudomonas fluorescens NIHJ B-254; test: activity of eluted fractions against test organism; format: cell-based; conditions: purified white powder
Procedure: The isourea derivative dihydrochloride of kasugamycin (500 mg) prepared in Example 2 was dissolved into 10% ethylenediamine in methanol (w/w). The solution was allowed to stand at room temperature for 24 hours, diluted with 80 ml of isopropanol and concentrated to one-half volume under reduced pressure. The solid deposited by concentration was filtered, washed with ethyl ether and dried to give 457 mg of a crude guanidino derivative of kasugamycin as a white powder. The crude powder was dissolved in 4.5 ml of water and adsorbed on a column containing 12 ml of a cation-exchange resin Amberlite IRC-50(NH4 -type). The column was washed with water and followed with 0.3N NH4 OH, and developed with 0.3N H2 SO4. The activities of each eluted fraction were determined using Pseudomonas fluorescens NIHJ B-254 as a test organism. […] And the product formed crystals as the salt of p-hydroxyazobenzene-p'-sulfonic acid.

[13] = acute toxicity to mice injected intravenously; format: in vivo; conditions: mouse, in vivo, iv
Source text: as §2

[14] = test system: swine; test: growth promoting effect on swine; format: in vivo; conditions: pigs, 10 g/ton in ration, 7 weeks
Source text: Growth promoting effect of kasugamycin-KG-8 on swine is described below. Kasugamycin-KG-8 was mixed uniformly with ration and administered to pigs to examine its effect on growth promotion and improvement of feed utilization. Fourty-eight young pigs of 1 month old were assigned to two lots of […] pigs each and fed for 7 weeks. Lot 1 (Control): Supplied only with basal ration. Lot 2: Supplied with basal ration + kasugamycin-KG-8 10 g/ton. As the basal ration, one of standard composition was used. Swine raising was managed according to usual method. Each lot of […] pigs were fed in a concrete pen. Ration and drinking water were supplied ad libitum. The index of weight gain indicates beneficial effect of kasugamycin-KG-8 on swing growth promotion.

[15] = test system: chicks; test: growth promoting effect on chicks; format: in vivo, chicks of broiler type (White Rock × White Cornish); design: Weight gain: unit not given here; conditions: 10 g/ton in ration; for Index of weight gain: control = 100
Procedure: Growth promoting effect of kasugamycin-KG-8 on chicks is tested below. Kasugamycin-KG-8 was mixed uniformly with ration and administered to chicks to examine its effect on growth promotion and improvement of feed utilization. Eighty chicks of broiler type (White Rock × White Cornish) were assigned to two lots of 40 chicks each and for 8 weeks. Lot 1 (Control): Supplied only with basal ration. Lot 2: Supplied with basal ration + kasugamycin-KG-8 10 g/ton. As the basal ration was used one of standard composition. Chick rearing was managed according to the usual method. Ration and drinking water were supplied ad libitum. Tabel 5 indicates beneficial effect of kasugamycin-KG-8 on chick growth promotion.

[16] = solubility; format: physicochemical
[17] = NIHJB24, Pseudomonas fluorescence NIHJB-24, broth dilution, read-out: Minimum inhibitory concentration

`C[C@H]1O[C@H](O[C@H]2[C@H](O)[C@@H](O)[C@@H](O)[C@H](O)[C@@H]2O)[C@@H](N)C[C@@H]1NC(=N)C(=O)O` [Kasugamycin] gave an MIC [1] greater than 100 µg/mL, an MIC [2] of 100 µg/mL (≈ 264 µM) and an MIC [3] of 100 µg/mL (≈ 264 µM). For the same molecule, the MIC [4] was 50 µg/mL (≈ 132 µM), the MIC [5] was 100 µg/mL (≈ 264 µM) and the MIC [6, 17] was 3.13 µg/mL (≈ 8.25 µM). It also gave an MIC [7] of 50 µg/mL (≈ 132 µM), an MIC [8] greater than 100 µg/mL and an MIC [9] of 50 µg/mL (≈ 132 µM). The ED50 [10] was 35.5 mg/kg.

Molecule `C[C@H]1O[C@H](O[C@H]2[C@H](O)[C@@H](O)[C@@H](O)[C@H](O)[C@@H]2O)[C@@H](N)C[C@@H]1NC(=N)NCCCN` [R1 =--(CH2)3 NH2, R2 =H] has an MIC [3] of 0.39 µg/mL (≈ 0.957 µM) and an MIC [4] of 0.2 µg/mL (≈ 0.491 µM).

For `C[C@H]1O[C@H](O[C@H]2[C@H](O)[C@@H](O)[C@@H](O)[C@H](O)[C@@H]2O)[C@@H](N)C[C@@H]1NC(=N)NCCCCN` [Example 5, 1D-3-O-{2-amino-4-[(2-aminobutyl)-guanidinol]-2,3,4,6-tetradeoxy-α-D-arabino-hexopyranosyl]-chiro-inositol], the “deaths after intravenous injection” value [11] was “one of them was dead”.

With `CNCCN(C)C(=N)N[C@H]1C[C@H](N)[C@@H](O[C@H]2[C@H](O)[C@@H](O)[C@@H](O)[C@H](O)[C@@H]2O)O[C@@H]1C` [Compound 3] the MIC [1] was 25 µg/mL (≈ 59.3 µM), the MIC [2] was 100 µg/mL (≈ 237 µM) and the MIC [3] was 100 µg/mL (≈ 237 µM). For the same molecule, the MIC [4] was 100 µg/mL (≈ 237 µM), the MIC [5] was 50 µg/mL (≈ 119 µM) and the MIC [6, 17] was 50 µg/mL (≈ 119 µM). The MIC [7] was 50 µg/mL (≈ 119 µM), the MIC [8] was 100 µg/mL (≈ 237 µM) and the MIC [9] was 50 µg/mL (≈ 119 µM).

For `C[C@H]1O[C@H](O[C@H]2[C@H](O)[C@@H](O)[C@@H](O)[C@H](O)[C@@H]2O)[C@@H](N)C[C@@H]1NC(=N)NCCCCN` [Compound 4], the MIC [1] was 0.78 µg/mL (≈ 1.85 µM), the MIC [2] was 1.56 µg/mL (≈ 3.7 µM) and the MIC [3] was 12.5 µg/mL (≈ 29.7 µM). For the same molecule, the MIC [4] was 1.56 µg/mL (≈ 3.7 µM), the MIC [5] was 1.56 µg/mL (≈ 3.7 µM) and the MIC [6, 17] was 3.13 µg/mL (≈ 7.43 µM). For the same molecule, the MIC [7] was 0.78 µg/mL (≈ 1.85 µM), the MIC [8] was 6.25 µg/mL (≈ 14.8 µM) and the MIC [9] was 0.2 µg/mL (≈ 0.475 µM).

With `CC(N)CNC(=N)NC1CC(N)C(OC2C(O)C(O)C(O)C(O)C2O)OC1C` [Example 4, 1D-3-O-{2-amino-4-[(2-aminopropyl)-guanidinol]-2,3,4,6-tetradeoxy-α-D-arabino-hexopyranosyl}-chiro-inositol] the “deaths after intravenous injection” value [11] was “none of them was dead”.

Work on `C[C@H]1O[C@H](O[C@H]2[C@H](O)[C@@H](O)[C@@H](O)[C@H](O)[C@@H]2O)[C@@H](N)C[C@@H]1NC(=N)NCCN` [kasugamycin-KG-8, 1D-3-O-{2-amino-4-[(2-aminoethyl)-guanidino]-2,3,4,6-tetradeoxy-α-D-arabino-hexopyranosyl}-chiro-inositol] yielded an MIC [1] of 0.39 µg/mL (≈ 0.991 µM), an MIC [2] of 0.39 µg/mL (≈ 0.991 µM) and an MIC [3] of 0.78 µg/mL (≈ 1.98 µM). The MIC [4] was 0.1 µg/mL (≈ 0.254 µM), the MIC [5] was 0.78 µg/mL (≈ 1.98 µM) and the MIC ([6]; Pseudomonas, NIHJB24, read-out: Minimum inhibitory concentration) was 1.56 µg/mL (≈ 3.97 µM). The MIC [7] was 0.2 µg/mL (≈ 0.508 µM), the MIC [8] was 1.56 µg/mL (≈ 3.97 µM) and the MIC [9] was 0.78 µg/mL (≈ 1.98 µM). The “activity relative to kasugamycin” value [12] was “three times active than kasugamycin”, the “Number survived/Number infected” value ([10]; 0.031 mg/mouse at one time, day 0 after infection) was 0/4 and the “Number survived/Number infected” value ([10]; 0.031 mg/mouse at one time, day 1 after infection) was 4/4. For the same molecule, the “Number survived/Number infected” value ([10]; 0.031 mg/mouse at one time, day 7 after infection) was 4/4, the “Number survived/Number infected” value ([10]; 0.063 mg/mouse at one time, day 0 after infection) was 0/4 and the “Number survived/Number infected” value ([10]; 0.063 mg/mouse at one time, day 1 after infection) was 1/4. For the same molecule, the “Number survived/Number infected” value ([10]; 0.063 mg/mouse at one time, day 2 after infection) was 2/4, the “Number survived/Number infected” value ([10]; 0.063 mg/mouse at one time, day 7 after infection) was 2/4 and the “Number survived/Number infected” value ([10]; 0.125 mg/mouse at one time, day 0 after infection) was 0/4. The “Number survived/Number infected” value ([10]; 0.125 mg/mouse at one time, day 3 after infection) was 1/4, the “Number survived/Number infected” value ([10]; 0.125 mg/mouse at one time, day 7 after infection) was 1/4 and the “Number survived/Number infected” value ([10]; 0.25 mg/mouse at one time, day 0 after infection) was 0/4. For the same molecule, the “Number survived/Number infected” value ([10]; 0.25 mg/mouse at one time, day 7 after infection) was 0/4, the “Number survived/Number infected” value ([10]; 0.5 mg/mouse at one time, day 0 after infection) was 0/4 and the “Number survived/Number infected” value ([10]; 0.5 mg/mouse at one time, day 7 after infection) was 0/4. The “Number survived/Number infected” value ([10]; 1.0 mg/mouse at one time, day 0 after infection) was 0/4, the “Number survived/Number infected” value ([10]; 1.0 mg/mouse at one time, day 7 after infection) was 0/4 and the “Number survived/Number infected” value ([10]; 2.0 mg/mouse at one time, day 0 after infection) was 0/4. The “Number survived/Number infected” value ([10]; 2.0 mg/mouse at one time, day 7 after infection) was 0/4, the ED50 ([10]; mice, intraperitoneal at 0 and 6 hours after infection) was 3.13 mg/kg and the LD50 [13] was 380 mg/kg. For the same molecule, the Feed conversion ([14]; control 3.05) was 2.94, the Weight gain ([14]; control 8.20) was 9.09 kg and the “Index of weight gain” value ([14]; control = 100) was 110.9. For the same molecule, the Weight gain ([15]; grower period for 4 weeks, control 871.8) was 957.8, the “Index of weight gain” value ([15]; grower period for 4 weeks) was 109.9 and the Feed conversion ([15]; grower period, control 3.65) was 3.56. The Weight gain ([15]; starter period of 4 weeks, control 458.4) was 496.2, the “Index of weight gain” value ([15]; starter period of 4 weeks) was 108.2 and the Feed conversion ([15]; starter period, control 2.15) was 2.15. The Weight gain ([15]; total period through 8 weeks, control 1330.2) was 1454.0, the “Index of weight gain” value ([15]; total period through 8 weeks) was 109.3 and the Feed conversion ([15]; total period, control 3.12) was 3.07. For the same molecule, the solubility ([16]; other organic solvents) was “scarcely soluble or insoluble in other organic solvents” and the solubility ([16]; water, dimethylformamide and low alcohols) was “soluble in water, dimethylformamide and low alcohols”.

Work on `C[C@H]1O[C@H](O[C@H]2[C@H](O)[C@@H](O)[C@@H](O)[C@H](O)[C@@H]2O)[C@@H](N)C[C@@H]1NC(=N)NCCS(=O)(=O)O` [Compound 8] yielded an MIC [1] of 100 µg/mL (≈ 218 µM), an MIC [2] greater than 100 µg/mL and an MIC [3] greater than 100 µg/mL. The MIC [4] was greater than 100 µg/mL, the MIC [5] was greater than 100 µg/mL and the MIC [6, 17] was 50 µg/mL (≈ 109 µM). It also gave an MIC [7] of 50 µg/mL (≈ 109 µM), an MIC [8] greater than 100 µg/mL and an MIC [9] of 12.5 µg/mL (≈ 27.3 µM).

Reference: patent US3968100A, “Guanidio derivatives of kasugamycin and their production” (Zaidan Hojin Biseibutsu Kagaku Kenkyu Kai, priority 1972, dated 1976)
